Holding throughout (assay): growth of human tumour cells (NCI), 48 h
The subject of assay [1] is SK-MEL-28 melanoma.
For assay [2], the system named is TK-10 renal.
For assay [3], the system named is SK-MEL-2 melanoma.
Assay [4] has as its system UACC-62 melanoma.
In assay [5] the test system is K-562 leukemia.

Consider 16 compounds from PubChem BioAssay (NCI).

The structures appear in SMILES notation. Several values for one entry are separate records, joined by “and”; a condition that tells them apart may be missing. Equal entries are not always repeated.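 Five compound concentrations were applied to cells in 96-well plates for 48 hours; endpoints were derived by simple linear interpolation of the resulting dose-response curve. Here, GI50 denotes the concentration required for 50% inhibition of growth. TGI: total growth inhibition.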 Some results are limits rather than exact numbers.

Take `C=C1C(=O)O[C@H]2[C@H]1CC/C(COC(=O)/C=C\C(=O)NCc1ccc(Cn3c(=O)sn(CCCC)c3=O)cc1)=C\CC[C@@]1(C)O[C@@H]21`: the GI50 in assay [1] was 1.41 µM; in assay [2], 0.61 µM; in assay [3] it was 1.67 µM; in assay [4], 1.2 µM; in assay [5], 0.316 µM. In addition, the TGI in assay [1] was determined as 2.74 µM; in assay [2], 1.78 µM; in assay [3], 3.31 µM; in assay [4], 2.53 µM; in assay [5], 4.82 µM.
In the case of `O=S(=O)(Nc1ccc(F)cc1F)c1ccc(-c2cnc(C3CC3)o2)cc1`, the GI50 in assay [1] is 13.1 µM; in assay [2] it was 3.2 µM; in assay [3] it was 0.737 µM; in assay [4], 0.358 µM; in assay [5], 0.211 µM. The TGI in assay [1] was over 71.9 µM; in assay [2], 48.3 µM; in assay [3], 34.6 µM; in assay [4], 23.3 µM; in assay [5], over 100 µM.
Take `O=C(c1ccc(/C=C/c2n[nH]c3ccccc23)cc1)N1CCNCC1`: the GI50 in assay [1] is 1.71 µM and 5.99 µM; in assay [2], > 10 µM and 5.29 µM; in assay [3] it was 4.53 µM and 6.85 µM; in assay [4] it was 1.72 µM and 11.3 µM; in assay [5] it was 1.45 µM and 1.37 µM. The TGI in assay [1] was 3.34 µM and 19.8 µM; in assay [2] it was > 10 µM and 20.2 µM; in assay [3] it was > 10 µM and 20.5 µM; in assay [4], 3.83 µM and 24.8 µM; in assay [5], 3.58 µM and 21.5 µM.
As for `CCN(Cc1ccccc1C)c1ccc(CO)c(Cl)c1`, the GI50 in assay [1] is 13.2 µM; in assay [2], 0.0944 µM; in assay [3], 4.47 µM; in assay [4] it was 0.423 µM; in assay [5], 3.1 µM. Also, the TGI in assay [1] was 27.8 µM; in assay [2], 0.863 µM; in assay [3], 18.1 µM; in assay [4], 6.27 µM; in assay [5] it was 13.8 µM.
On to `CC(=O)Oc1ccccc1C(=O)Nc1ncc([N+](=O)[O-])s1`, for which the GI50 in assay [1] was 2.48 µM; in assay [2], 3.75 µM; in assay [3], 2.05 µM; in assay [4], 1.23 µM; in assay [5], 2.53 µM. Moreover, the TGI in assay [1] was 15.2 µM and > 100 µM; in assay [2], 10.3 µM and > 100 µM; in assay [4], 6.71 µM and > 47.3 µM; in assay [5] it was 18.8 µM and > 100 µM.
`Cc1cc(C)c(/C=C2\C(=O)Nc3ccc(NC(=O)CCCCCCC(=O)NO)cc32)[nH]1`: the GI50 in assay [1] is 0.525 µM; in assay [2] it was 3.1 µM; in assay [3], 1.89 µM; in assay [4], 0.407 µM; in assay [5] it was 0.373 µM. In addition, the TGI in assay [1] was over 100 µM; in assay [2], over 100 µM; in assay [3], 49.8 µM; in assay [4], 2.75 µM; in assay [5], over 100 µM.
`Cc1nc(-[n+]2nc(-c3ccncc3)nn2-c2ccccc2)sc1C`: the TGI is over 100 µM in assay [1]; 99.1 µM in assay [2]; over 100 µM in assay [3]; over 100 µM in assay [4]; over 100 µM in assay [5].
On to `CC(C)(S)C(N)C(=O)O` (stereo not drawn), for which the GI50 in assay [1] is over 5000 µM; in assay [2], 2610 µM; in assay [3], 2390 µM; in assay [4], 4760 µM; in assay [5] it was 2390 µM. For the same compound, the TGI in assay [1], in assay [2], in assay [3], in assay [4] and in assay [5] was over 5000 µM in each case.
With `[N-]=[N+]=Nc1cc(=O)[nH]nc1-c1ccccc1`, the TGI in assay [1], in assay [2], in assay [4] and in assay [5] was over 100 µM throughout.
For `C#COc1cccc(Nc2c(C#N)cnc3ncc(NC(=O)CCl)cc23)c1`, the GI50 is over 62.5 µM in assay [1]; over 62.5 µM in assay [2]; over 62.5 µM in assay [3]; 35.7 µM in assay [4]; 25.9 µM in assay [5]. The TGI in assay [1], in assay [2], in assay [3], in assay [4] and in assay [5] was over 62.5 µM each time.
Consider `CCOC(=O)/C=C(/C)Sc1cc(O)c2ccccc2c1O`, for which the GI50 was 2.34 µM in assay [1], 8.29 µM in assay [2], 3.67 µM in assay [4] and 2.48 µM in assay [5]. Further, the TGI is 5.45 µM in assay [1], 17.9 µM in assay [2], 14 µM in assay [4] and 6.68 µM in assay [5].
For `c1ccc2nc3c(nc2c1)sc1ccccc13`, the TGI is over 100 µM in assay [1]; 39.3 µM in assay [2]; over 100 µM in assay [3]; 79.3 µM in assay [4]; over 100 µM in assay [5].
As for `C1=C\COCc2cc(ccc2OCCN2CCCC2)Nc2nccc(n2)-c2cccc(c2)COC/1`, the GI50 in assay [1] was 2.1 µM; in assay [2], 3.33 µM; in assay [3] it was 2.49 µM; in assay [4], 2.02 µM; in assay [5], 0.933 µM. For the same compound, the TGI was 5.33 µM in assay [1]; 5.79 µM in assay [2]; 5.51 µM in assay [3]; 5.2 µM in assay [4]; 3.65 µM in assay [5].
In the case of `O=C1NC(=O)C(c2cccc([N+](=O)[O-])c2)=C1Nc1cc(Cl)c(O)c(Cl)c1`, the GI50 is over 25 µM in assay [1]; over 17.7 µM in assay [2]; over 19.8 µM in assay [3]; over 20.8 µM in assay [4]; over 25 µM in assay [5]. Moreover, the TGI in assay [1], in assay [2], in assay [3], in assay [4] and in assay [5] was over 25 µM throughout.
Take `COc1cc2c3c(n(CCCOC(=O)C(F)(F)F)c(=O)c2cc1OC)-c1cc2c(cc1C3=O)OCO2`: the TGI in assay [1], in assay [2], in assay [3] and in assay [5] was over 100 µM throughout. For the same compound, the GI50 is 0.135 µM in assay [2], 7.3 µM in assay [3], under 0.01 µM in assay [4] and under 0.0289 µM in assay [5].
For the compound `COc1ncc(-c2ccc3ncnc(Nc4cccc(Cl)c4)c3c2)cc1NS(=O)(=O)C1CC1`, in assay [1], the GI50 was over 100 µM and the TGI is over 100 µM. In assay [5], the GI50 is over 100 µM and the TGI was over 100 µM.
